Like-named read-outs stand apart in the source and are kept apart here. Each block holds one compound with its values, some of them ahead of it.
Tests used:
DLD-1 cells = experiment: Sensitivity of DLD-1 versus HCT-116 cells to EBP inhibitors; type: cell-based, human; conditions: varying doses
[1] = tested on: colorectal tumors in CPC;Apc mice; experiment: Anti-tumor effects in CPC;Apc mice; type: in vivo, mouse; conditions: 90 days' treatment
Procedure: These mice carry a CDX2P-NLS Cre recombinase transgene and a loxP-targeted Apc allele that deletes exon 14, leading to a frame shift at codon 580 and a truncated APC protein. […] Weights were measured every 15 days over the treatment period. These studies were performed according to the guidelines of the UT Southwestern Institutional Animal Care and Use Committee.

DLD1 tumors = experiment: Xenograft mouse model, DLD1 tumors; type: in vivo; conditions: nude mice, 40 mg/kg intraperitoneally twice daily for 18 days
[2] = Mouse PK analysis, plasma; type: in vivo; conditions: for Cmax: female, CD-1, mouse, plasma, dosed intravenously (i.v.)
[3] = Mouse PK analysis, large intestine; type: in vivo; conditions: for AUC(0-t): female, CD-1, mouse, large intestine, read-out: Large Intestinal pK AUClast (converted)

melting point: 152 to 155 °C | Cmax ([2]; iv): 191 to 742 ng/mL | Plasma pK AUClast (ng · min/mL) ([2]; iv, 10 mg/kg): 21,581 ng · min/mL | Plasma pK Cmax (ng/mL) ([2]; iv, 10 mg/kg): 191 ng/mL | Plasma pK Tmax (min) ([2]; iv, 10 mg/kg): 30 min | Plasma pK Vz (mL) ([2]; iv, 10 mg/kg): 1243 mL | AUC(0-t) ([3]; iv, 10 mg/kg): 4380 ng·h/mL | Large Intestinal pK Tmax (min) ([3]; iv, 10 mg/kg): 10 min
SMILES: CC1CCN(C2CCN(S(=O)(=O)c3ccc(Cl)cc3)CC2)CC1 [compound 16, 1′-((4-Chlorophenyl)sulfonyl)-4-methyl-1,4′-bipiperidine]

melting point: 132 to 135 °C | oral bioavailablity ([2]; 20 mg/kg): 52% | Cmax ([2]; iv): 191 to 742 ng/mL | Plasma pK AUClast (ng · min/mL) ([2]; ip, 10 mg/kg): 205,914 ng · min/mL | Plasma pK Cmax (ng/mL) ([2]; ip, 10 mg/kg): 1,117 ng/mL | Plasma pK Tmax (min) ([2]; ip, 10 mg/kg): 10 min | Plasma pK Vz (mL) ([2]; ip, 10 mg/kg): 156 mL | Plasma pK AUClast (ng · min/mL) ([2]; iv, 5 mg/kg): 197,571 ng · min/mL | Plasma pK Cmax (ng/mL) ([2]; iv, 5 mg/kg): 742 ng/mL | Plasma pK Tmax (min) ([2]; iv, 5 mg/kg): 10 min | Plasma pK Vz (mL) ([2]; iv, 5 mg/kg): 135 mL | Plasma pK AUClast (ng · min/mL) ([2]; po, 20 mg/kg): 328,296 ng · min/mL | Plasma pK Cmax (ng/mL) ([2]; po, 20 mg/kg): 691 ng/mL | Plasma pK Vz (mL) ([2]; po, 20 mg/kg): 153 mL | AUC(0-t) ([3]; ip, 10 mg/kg): 13200 ng·h/mL | AUC(0-t) ([3]; iv, 5 mg/kg): 8530 ng·h/mL | AUC(0-t) ([3]; po, 20 mg/kg): 14800 ng·h/mL | Large Intestinal pK Tmax (min) ([3]; po, 20 mg/kg): 10 min
SMILES: CC1CCN(C2CCN(S(=O)(=O)c3ccc(OC(F)F)cc3)CC2)CC1 [compound 22, 1′-((4-(Difluoromethoxy)phenyl)sulfonyl)-4-methyl-1,4′-bipiperidine]

melting point: 148 to 151 °C
SMILES: CC1CCN(CC2CCN(S(=O)(=O)c3ccc(-c4ccccc4)cc3)CC2)CC1 [compound 155, 1-([1,1′-biphenyl]-4-ylsulfonyl)-4-((4-methylpiperidin-1-yl)methyl)piperidine]

Continued, compound first:

SMILES: CC(C(O)c1ccc(O)cc1)N1CCC(Cc2ccccc2)CC1 (stereo not shown) [Ifenprodil, ifenprodil]
selective sensitivity of DLD-1 versus HCT-116 cells (DLD-1 cells): selectively sensitive

SMILES: COc1ccc2c(c1)CCC(c1ccccc1)=C2c1ccc(OCCN2CCCC2)cc1 [Nafoxidine, nafoxidine]
selective sensitivity of DLD-1 versus HCT-116 cells (DLD-1 cells): selectively sensitive

SMILES: COc1ccc(S(=O)(=O)N2CCC(N3CCC(C)CC3)CC2)cc1 [TASIN-1]
body weight over treatment [1]: gained weight to a level similar to WT mice | toxicity and body weights (DLD1 tumors): no overt toxicity and no statistically significant differences were observed in the body weights

SMILES: COc1ccc(S(=O)(=O)N2CCC(N3CCC(C)CC3)CC2)cc1 [compound 6, 1′-((4-methoxyphenyl)sulfonyl)-4-methyl-1,4′-bipiperidine]
Plasma pK AUClast (ng · min/mL) ([2]; ip, 10 mg/kg): 104,103 ng · min/mL | Plasma pK Cmax (ng/mL) ([2]; ip, 10 mg/kg): 2,390 ng/mL | Plasma pK Tmax (min) ([2]; ip, 10 mg/kg): 10 min | Plasma pK Vz (mL) ([2]; ip, 10 mg/kg): 162 mL | AUC(0-t) ([3]; ip, 10 mg/kg): 12300 ng·h/mL

SMILES: CC1CCN(CC2CCN(S(=O)(=O)c3ccc(-c4ccccc4F)cc3)CC2)CC1 [compound 154, 1-((2′-fluoro-[1,1′-biphenyl]-4-yl)sulfonyl)-4-((4-methylpiperidin-1-yl)methyl)piperidine]
melting point: 136 to 139 °C

From US20220024891A1 (The Board of Regents of the University of Texas System, priority 2018, published 2022)
